The target in test [1] is TANK binding kinase (TBK1) (Homo sapiens (Human), UniProt Q9UHD2). Description: TBK1 enzyme assay (384-well Flashplate kinase assay). The format is biochemical. To be noted: 10 μM ATP, 120 Min at 30° C. Here is the method: Test for the Inhibition of TBK1
The kinase assay is performed as 384-well Flashplate assay (for e.g. Topcount measurement. 0.6 nM TANK binding kinase (TBK1), 800 nM biotinylated MELK-derived peptide (Biotin-Ah-Ah-[…]) SEQ ID NO: 2 and 10 μM ATP (spiked with 0.25 μCi ^33P-ATP/well) are incubated in a total volume of 50 μl (10 mM MOPS, 10 mM Mg-acetat, 0.1 mM EGTA, 1 mM DTT, 0.02% Brij35, 0.1% BSA, pH 7.5) with or without test compound for 120 Min at 30° C. The reaction is stopped with 25 μl 200 mM EDTA. After 30 Min at room temperature the liquid is removed and each well washed thrice with 100 μl 0.9% sodium chloride solution. Nonspecific reaction is determined in presence of 100 nM Staurosporine. Radioactivity is measured in a Topcount (PerkinElmer). Results (e.g. IC50-values) are calculated with program tools provided by the IT-department (e.g. AssayExplorer, Symyx).

Another test concerns the target IKKε (Homo sapiens (Human), UniProt Q14164). Description: IKKε kinase assay (384-well Flashplate). The format is biochemical. To be noted: 10 μM ATP, 2 hours at 30° C.; read-out: IKKε enzyme assay IC50. On the procedure:
Test for the Inhibition of IKKε
IKKε—Kinase Assay (IKKepsilon)
The kinase assay is performed either as 384-well Flashplate assay (for e.g. Topcount measurement). […] The reaction is stopped with 25 μl 200 mM EDTA. After 30 Min at room temperature the liquid is removed and each well washed thrice with 100 μl 0.9% sodium chloride solution. […] Radioactivity is measured with Topcount (PerkinElmer). Results (e.g. IC50-values) are calculated with program tools provided by the IT-department (e.g. AssayExplorer, Symyx).

This is an account of results in US9249114B2, “Thiazole derivatives” (Merck Patent GmbH, priority 2011, dated 2016).

Each structure is given as a SMILES string.

Chain of TANK binding kinase (TBK1) (Q9UHD2 whole entry): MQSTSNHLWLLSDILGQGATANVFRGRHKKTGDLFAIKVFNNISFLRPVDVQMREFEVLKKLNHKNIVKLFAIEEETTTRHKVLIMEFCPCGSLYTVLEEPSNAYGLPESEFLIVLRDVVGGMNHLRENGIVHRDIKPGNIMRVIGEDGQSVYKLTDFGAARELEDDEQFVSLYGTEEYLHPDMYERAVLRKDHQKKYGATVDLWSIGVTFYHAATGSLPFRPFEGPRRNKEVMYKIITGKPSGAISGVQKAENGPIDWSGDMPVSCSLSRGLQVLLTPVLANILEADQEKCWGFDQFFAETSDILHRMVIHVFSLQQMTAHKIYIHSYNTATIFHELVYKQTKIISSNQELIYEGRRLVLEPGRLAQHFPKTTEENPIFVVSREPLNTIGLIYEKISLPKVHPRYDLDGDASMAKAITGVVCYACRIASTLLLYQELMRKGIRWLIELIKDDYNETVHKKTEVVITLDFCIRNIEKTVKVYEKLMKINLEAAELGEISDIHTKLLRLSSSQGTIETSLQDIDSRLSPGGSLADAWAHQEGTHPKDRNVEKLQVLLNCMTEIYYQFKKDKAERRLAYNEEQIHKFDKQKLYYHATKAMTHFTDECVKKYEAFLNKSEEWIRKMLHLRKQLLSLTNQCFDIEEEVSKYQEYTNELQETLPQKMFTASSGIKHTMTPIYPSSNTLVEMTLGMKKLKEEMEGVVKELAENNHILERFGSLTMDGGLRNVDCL
Chain of IKKε (Q14164 whole entry): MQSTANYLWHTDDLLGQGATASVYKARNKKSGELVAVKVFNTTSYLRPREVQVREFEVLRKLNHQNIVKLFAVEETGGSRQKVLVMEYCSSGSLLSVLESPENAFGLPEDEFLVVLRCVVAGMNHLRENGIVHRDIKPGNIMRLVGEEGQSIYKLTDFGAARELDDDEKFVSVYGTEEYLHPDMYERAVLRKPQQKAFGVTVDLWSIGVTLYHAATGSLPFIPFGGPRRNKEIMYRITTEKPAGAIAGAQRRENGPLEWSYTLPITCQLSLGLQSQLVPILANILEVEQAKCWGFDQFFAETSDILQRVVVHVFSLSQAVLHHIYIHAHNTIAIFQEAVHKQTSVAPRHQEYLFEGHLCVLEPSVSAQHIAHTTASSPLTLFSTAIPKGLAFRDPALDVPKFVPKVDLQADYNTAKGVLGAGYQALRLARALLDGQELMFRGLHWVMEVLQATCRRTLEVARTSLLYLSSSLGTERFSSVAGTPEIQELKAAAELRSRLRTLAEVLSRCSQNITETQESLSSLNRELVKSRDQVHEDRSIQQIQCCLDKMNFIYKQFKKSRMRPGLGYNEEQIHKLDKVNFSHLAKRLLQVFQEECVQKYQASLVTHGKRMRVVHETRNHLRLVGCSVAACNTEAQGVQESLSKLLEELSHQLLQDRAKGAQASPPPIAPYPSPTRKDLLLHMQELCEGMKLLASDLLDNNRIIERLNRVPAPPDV

For orientation: IC50 means the midpoint of a concentration-inhibition curve. For `CN1CCN(Cc2ccc(C(=O)Nc3sc(-c4ccnc(F)c4)nc3C(N)=O)cc2)CC1` [Compound A6, 2-(2-fluoro-pyridin-4-yl)-5-[4-(4-methyl-piperazin-1-ylmethyl)-benzoylamino]-thiazole-4-carboxylic acid amide], the results for the IC50 (in test [1]; on IKKε) were 630 nM and 540 nM, respectively. The matching figures for `Cc1cc(-c2nc(C(N)=O)c(NC(=O)c3ccc(CN4CCN(C)CC4)cc3)s2)ccn1` [Compound A7, 5-[4-(4-methyl-piperazin-1-ylmethyl)-benzoylamino]-2-(2-methyl-pyridin-4-yl)-thiazole-4-carboxylic acid amide]: 410 nM and 390 nM. The matching figures for `CN1CCN(Cc2ccc(C(=O)Nc3sc(-c4ccnc(C(F)(F)F)c4)nc3C(N)=O)cc2)CC1` [Compound A8, 5-[4-(4-methyl-piperazin-1-ylmethyl)-benzoylamino]-2-(2-trifluoromethyl-pyridin-4-yl)-thiazole-4-carboxylic acid amide]: 6300 nM and 2100 nM. The matching figures for `CN1CCN(Cc2ccc(C(=O)Nc3sc(-c4ccnc(C#N)c4)nc3C(N)=O)cc2)CC1` [Compound A9, 2-(2-cyano-pyridin-4-yl)-5-[4-(4-methyl-piperazin-1-ylmethyl)-benzoylamino]-thiazole-4-carboxylic acid amide]: 2000 nM and 740 nM.

Take `CN1CCN(Cc2ccc(Nc3sc(-c4ccncc4)nc3C(N)=O)cc2)CC1` [Compound A14, 5-[4-(4-methyl-piperazin-1-ylmethyl)-phenylamino]-2-pyridin-4-yl-thiazole-4-carboxylic acid amide]: the IC50 was determined as 1700 nM in test [1] and 420 nM at IKKε. For `Cc1cc(-c2nc(C(N)=O)c(NC(=O)c3ccc(CN4CCN(C)CC4)cc3)s2)cc(C)n1` [Compound A16, 2-(2,6-dimethyl-pyridin-4-yl)-5-[4-(4-methyl-piperazin-1-ylmethyl)-benzoylamino]-thiazole-4-carboxylic acid amide], the IC50 at IKKε came to 3800 nM. `CC(C)(C)OC(=O)N1CCN(c2ccc(C(=O)Nc3sc(-c4ccncc4)nc3C(N)=O)cn2)CC1` [Compound A39, 4-[5-(4-Carbamoyl-2-pyridin-4-yl-thiazol-5-ylcarbamoyl)-pyridin-2-yl]-piperazine-1-carboxylic acid tert-butyl ester]: the IC50 in test [1] is 1200 nM.

Take `COc1ccc(C(=O)Nc2sc(-c3ccncc3)nc2C(N)=O)cc1OC` [Compound A41, 5-(3,4-dimethoxy-benzoylamino)-2-pyridin-4-yl-thiazole-4-carboxylic acid amide]: the half-maximal inhibitory concentration (IC50) in test [1] came to 1500 nM.

On to `NC(=O)c1nc(-c2ccncc2)sc1NC(=O)c1cnn(CC2CCNCC2)c1` [Compound A44, 5-[(1-piperidin-4-ylmethyl-1H-pyrazole-4-carbonyl)-amino]-2-pyridin-4-yl-thiazole-4-carboxylic acid amide], for which the half-maximal inhibitory concentration (IC50) in test [1] was determined as 7900 nM. Still for that read-out and setting: the result for `CN1CCN(Cc2ccc(C(=O)Nc3sc(-c4ccncc4)nc3C#N)cc2)CC1` [Compound A45, N-(4-cyano-2-pyridin-4-yl-thiazol-5-yl)-4-(4-methyl-piperazin-1-ylmethyl)-benzamide] reads 8200 nM. On the same count and under the same terms, the value for `NC(=O)c1nc(-c2ccncc2)sc1NC(=O)c1ccccc1` [Compound A56, 5-benzoylamino-2-pyridin-4-yl-thiazole-4-carboxylic acid amide] was 3600 nM; that for `NC(=O)c1nc(-c2ccncc2)sc1NC(=O)c1cccs1` [Compound A62, 2-pyridin-4-yl-5-[(2-thienylcarbonyl)amino]-1,3-thiazole-4-carboxamide] was 2000 nM. Still for that read-out and setting: the value for `NC(=O)c1nc(-c2ccncc2)sc1NC(=O)c1ccoc1` [Compound A64, 5-(3-furoylamino)-2-pyridin-4-yl-1,3-thiazole-4-carboxamide] was 4600 nM.
